Laboratory results reported in publication PMC8276018, “The Prostacyclin Analogue, Treprostinil, Used in the Treatment of Pulmonary Arterial Hypertension, is a Potent Antagonist of TREK-1 and TREK-2 Potassium Channels” (Frontiers in Pharmacology, 2021).
Changes are numbered by the printed parent chain.

Key:
Format in all cases: cell-based
[1] = target: T1, TREK-1 (Homo sapiens, UniProt O95069); test: whole-cell patch-clamp, current activation at […]; details: read-out: % current enhancement at 1 μM
T1 construct: gene KCNK2; NP_055032.1, wild type, expressed in tsA201 cells
T1 sequence (O95069 1-426): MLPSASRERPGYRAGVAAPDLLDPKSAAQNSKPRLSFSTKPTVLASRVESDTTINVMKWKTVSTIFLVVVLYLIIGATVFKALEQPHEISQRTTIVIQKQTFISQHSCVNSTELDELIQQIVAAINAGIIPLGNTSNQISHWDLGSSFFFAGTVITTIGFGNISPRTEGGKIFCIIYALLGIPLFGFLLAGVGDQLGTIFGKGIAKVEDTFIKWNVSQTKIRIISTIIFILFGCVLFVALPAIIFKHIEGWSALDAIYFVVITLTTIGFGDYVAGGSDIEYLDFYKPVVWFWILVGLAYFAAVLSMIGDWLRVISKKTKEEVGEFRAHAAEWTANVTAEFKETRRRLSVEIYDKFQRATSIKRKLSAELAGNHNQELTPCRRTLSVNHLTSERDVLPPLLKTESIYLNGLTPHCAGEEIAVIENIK

[2] = target: T2, TREK-2 (Homo sapiens, UniProt P57789); test: whole-cell patch-clamp, current activation at […]; details: read-out: % current enhancement at 1 μM
T2 construct: gene KCNK10; NP_612190.1, wild type, expressed in tsA201 cells
T2 sequence (P57789 1-538): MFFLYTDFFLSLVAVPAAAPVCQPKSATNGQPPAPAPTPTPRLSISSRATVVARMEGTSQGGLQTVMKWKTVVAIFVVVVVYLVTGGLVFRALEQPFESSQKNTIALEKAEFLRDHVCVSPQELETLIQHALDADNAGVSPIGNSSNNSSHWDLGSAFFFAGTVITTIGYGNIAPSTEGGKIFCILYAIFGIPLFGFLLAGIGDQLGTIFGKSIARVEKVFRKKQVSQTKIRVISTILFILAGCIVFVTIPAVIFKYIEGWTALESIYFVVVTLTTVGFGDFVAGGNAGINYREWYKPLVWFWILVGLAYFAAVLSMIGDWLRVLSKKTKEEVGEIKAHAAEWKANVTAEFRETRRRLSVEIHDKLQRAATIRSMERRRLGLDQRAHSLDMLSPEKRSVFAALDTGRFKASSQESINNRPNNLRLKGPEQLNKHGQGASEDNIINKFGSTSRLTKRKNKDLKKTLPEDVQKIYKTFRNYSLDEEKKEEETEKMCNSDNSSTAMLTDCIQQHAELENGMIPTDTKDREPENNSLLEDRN

[3] = target: T2, TREK-2; test: whole-cell patch-clamp, concentration-response
[4] = target: T3, TREK-2 (Homo sapiens, UniProt P57789, L315A); test: whole-cell patch-clamp, […]
T3 construct: gene KCNK10; homodimeric mutant channel in tsA201 cells
T3 sequence (P57789 1-538 L315A): T2 sequence (P57789 1-538) with L315A

[5] = target: T1, TREK-1; test: whole-cell patch-clamp, concentration-response
[6] = target: T4, TREK-1 (Homo sapiens, UniProt O95069, L117A); test: whole-cell patch-clamp, […]
T4 construct: gene KCNK2; homodimeric mutant channel in tsA201 cells
T4 sequence (O95069 16-426 L117A): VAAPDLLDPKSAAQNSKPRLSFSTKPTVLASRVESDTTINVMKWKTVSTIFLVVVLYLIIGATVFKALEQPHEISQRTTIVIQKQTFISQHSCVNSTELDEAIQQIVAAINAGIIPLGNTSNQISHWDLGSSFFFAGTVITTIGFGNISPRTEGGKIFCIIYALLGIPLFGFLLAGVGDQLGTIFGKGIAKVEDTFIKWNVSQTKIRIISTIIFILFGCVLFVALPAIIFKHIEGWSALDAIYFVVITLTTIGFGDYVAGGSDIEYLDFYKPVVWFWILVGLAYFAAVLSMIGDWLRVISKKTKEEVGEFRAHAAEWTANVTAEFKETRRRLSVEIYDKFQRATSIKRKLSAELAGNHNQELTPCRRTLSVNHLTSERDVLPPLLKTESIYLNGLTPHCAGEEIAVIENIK

[7] = target: T5, TREK-1 (Homo sapiens, UniProt O95069, Q91A); test: whole-cell patch-clamp, […]
T5 construct: gene KCNK2; homodimeric mutant channel in tsA201 cells
T5 sequence (O95069 1-411 isoform O95069-2 Q76A): T4 sequence (O95069 16-426 L117A) with V1M, Q76A, A102L

[8] = target: T6, TREK-1 (Homo sapiens, UniProt O95069, Y299A); test: whole-cell patch-clamp, […]
T6 construct: gene KCNK2; homodimeric mutant channel in tsA201 cells
T6 sequence (O95069 1-411 isoform O95069-2 Y284A): T4 sequence (O95069 16-426 L117A) with V1M, A102L, Y284A

[9] = target: T7, TREK-1 (Homo sapiens, UniProt O95069, L304A); test: whole-cell patch-clamp, […]
T7 construct: gene KCNK2; homodimeric mutant channel in tsA201 cells
T7 sequence (O95069 1-411 isoform O95069-2 L289A): T4 sequence (O95069 16-426 L117A) with V1M, A102L, L289A

[10] = target: T8, TREK-1 (Homo sapiens, UniProt O95069, I95A); test: whole-cell patch-clamp, […]
T8 construct: gene KCNK2; homodimeric mutant channel in tsA201 cells
T8 sequence (O95069 1-411 isoform O95069-2 I80A): T4 sequence (O95069 16-426 L117A) with V1M, I80A, A102L

| Compound | activation at 1 µM [1] | activation at 1 µM [2] | IC50 [3] | inhibition at 1 µM [4] | IC50 [5] | inhibition at 1 µM [6] | inhibition at 1 µM [7] | inhibition at 1 µM [8] | inhibition at 1 µM [9] | inhibition at 1 µM [10] |
| --- | --- | --- | --- | --- | --- | --- | --- | --- | --- | --- |
| c1ccc(-c2nn[nH]n2)c(Nc2cccc3c2CCCC3)c1 [BL-1249] | 144% | 192% |  |  |  |  |  |  |  |  |
| CCCCC[C@H](O)CC[C@@H]1[C@H]2Cc3cccc(OCC(=O)O)c3C[C@H]2C[C@H]1O [treprostinil] |  |  | 40 nM | 74% | 30 nM | 88% | 89% | 58% | 72% | 78.2% |
